ChEMBL document CHEMBL3745607, “Optimization of allosteric MEK inhibitors. Part 2: Taming the sulfamide group balances compound distribution properties” (Bioorg Med Chem Lett, 2016)

Legend:
A-375 = assay: Antiproliferative activity against human A375 cells harboring BRAF(V600E) mutation after 72 hrs by cell titer glow cell titer glow FCTGI assay; details: A-375, 72 h
cells [1] = details: Homo sapiens, HCT-116
Description: Antiproliferative activity against human HCT116 cells harboring K-Ras G13D mutation

cells [2] = details: Homo sapiens, COLO 205
Description: Antiproliferative activity against human COLO205 cells harboring BRAF mutation

A549 [3] = assay: Antitumor activity against human A549 cells xenografted in mouse assessed as reduction in tumor area at 1 mg/kg, po qd relative to control; assay type: functional
[4] = Ratio of AUC in brain to plasma in mouse at 5 mg/kg, iv measured for 0 to 3 hrs; assay type: ADME, organism-based; details: brain and plasma, read-out: BPR
HepG2 = assay: cells; details: Homo sapiens
Description: Antiproliferative activity against human HepG2 cells harboring N-Ras mutation

[5] = Blood clearance in rat at 0.5 mg/kg, iv or 1 mg/kg, po; assay type: ADME, organism-based
[6] = Volume of distribution at steady state in rat at 0.5 mg/kg, iv or 1 mg/kg, po; assay type: ADME, organism-based; details: in vivo, read-out: Vdss
A549 [7] = assay: cells; details: Homo sapiens
Description: Antiproliferative activity against human A549 cells harboring K-Ras mutation

MCF7 = assay: cells; details: Homo sapiens
Description: Antiproliferative activity against human MCF7 cells

[8] = Half life in rat at 0.5 mg/kg, iv or 1 mg/kg, po; assay type: ADME, organism-based; details: in vivo
[9] = Oral bioavailability in rat 1 mg/kg; assay type: ADME, organism-based; details: in vivo
A549 [10] = assay: Antitumor activity against human A549 cells xenografted in mouse assessed as reduction in tumor area at 2 mg/kg, po qd relative to control; assay type: functional
[11] = Half life in rat at 0.5 mg/kg, iv or 5 mg/kg, po; assay type: ADME, organism-based; details: in vivo
[12] = Oral bioavailability in rat 5 mg/kg; assay type: ADME, organism-based; details: in vivo
Carbonic anhydrase 2 = Carbonic anhydrase 2 (Homo sapiens, UniProt P00918); assay: Inhibition of human carbonic anhydrase 2
Carbonic anhydrase 1 = Carbonic anhydrase 1 (Homo sapiens, UniProt P00915); assay: Inhibition of human carbonic anhydrase 1
Carbonic anhydrase 1, sequence (P00915 whole entry): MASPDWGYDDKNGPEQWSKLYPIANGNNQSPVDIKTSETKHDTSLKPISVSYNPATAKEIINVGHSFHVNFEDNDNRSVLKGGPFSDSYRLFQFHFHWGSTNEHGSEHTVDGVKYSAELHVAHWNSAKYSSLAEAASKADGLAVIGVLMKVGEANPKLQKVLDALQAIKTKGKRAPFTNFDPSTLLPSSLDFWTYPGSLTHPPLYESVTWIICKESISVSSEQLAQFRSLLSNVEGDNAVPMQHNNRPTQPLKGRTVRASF

Row | SMILES | IC50 (A-375) [nM] | IC50 (cells [1]) [nM] | also measured
1 | Cc1c(NS(N)(=O)=O)cccc1Oc1cc(F)c(F)c(Nc2ccc(I)cc2F)c1C(N)=O | 0.2 | 2 | 
2 | NC(=O)c1c(Nc2ccc(I)cc2F)cc(F)cc1Oc1ccc(F)c(NS(N)(=O)=O)c1 | 90 | 2510 | 
3 | NC(=O)c1c(Nc2ccc(I)cc2F)cc(F)cc1Oc1ccc(F)c(NS(N)(=O)=O)c1F | 374 |  | 
4 | CCS(=O)(=O)Nc1cccc(Oc2cc(F)c(F)c(Nc3ccc(I)cc3F)c2C(N)=O)c1 | 2.4 | 65 | 
5 | NC(=O)c1c(Oc2ccc(F)c(NS(N)(=O)=O)c2F)cc(F)c(F)c1Nc1ccc(I)cc1F | 32 | 2950 | 
6 | NC(=O)c1c(Oc2cccc(CNS(N)(=O)=O)c2)cc(F)c(F)c1Nc1ccc(I)cc1F | 4 | 124 | IC50 (cells [2]): 9 nM; T/C (A549 [3]): 0.13; Kp [4]: < 0.02; IC50 (HepG2): 5 nM; clearance [5]: 1.17 mL/min/kg; Vd [6]: 1.9 L/kg; IC50 (A549 [7]): 185 nM; IC50 (MCF7): > 10000 nM; half-life [8]: 32 h; bioavailability [9]: 78%
7 | CCS(=O)(=O)Nc1cccc(Oc2c(F)c(F)cc(Nc3ccc(I)cc3F)c2C(N)=O)c1 | 4 | 81 | 
8 | NC(=O)c1c(Oc2cccc(CS(N)(=O)=O)c2)cc(F)c(F)c1Nc1ccc(I)cc1F | 11 | 303 | 
9 | CC(NS(N)(=O)=O)c1cccc(Oc2cc(F)cc(Nc3ccc(I)cc3F)c2C(N)=O)c1 (configuration not stated) | 24 | 731 | 
10 | CCNS(=O)(=O)Nc1cccc(Oc2cc(F)cc(Nc3ccc(I)cc3F)c2C(N)=O)c1 | < 30 | 287 | 
11 | NC(=O)c1c(Oc2cccc(NS(N)(=O)=O)c2)cc(F)c(F)c1Nc1ccc(I)cc1F | 2 | 50 | 
12 | NC(=O)c1c(Oc2ccc(F)c(NS(N)(=O)=O)c2)cc(F)c(F)c1Nc1ccc(I)cc1F | 13 | 277 | IC50 (cells [2]): 42 nM; Kp [4]: < 0.02; IC50 (HepG2): 2 nM; clearance [5]: 0.333 mL/min/kg; Vd [6]: 0.5 L/kg; IC50 (A549 [7]): 314 nM; IC50 (MCF7): > 10000 nM; half-life [8]: 26 h; bioavailability [9]: 84%; T/C (A549 [10]): 0.21
13 | NC(=O)c1c(Nc2ccc(I)cc2F)cc(F)cc1Oc1ccc2c(c1)N(S(N)(=O)=O)CCO2 | 339 |  | 
14 | Cc1ccc(NS(N)(=O)=O)cc1Oc1cc(F)cc(Nc2ccc(I)cc2F)c1C(N)=O | 570 |  | 
15 | NC(=O)c1c(Nc2ccc(I)cc2F)cc(F)cc1Oc1cccc(NS(N)(=O)=O)c1Br | 8 | 152 | 
16 | NC(=O)c1c(Nc2ccc(I)cc2F)cc(F)cc1Oc1cccc(F)c1NS(N)(=O)=O | 138 |  | 

Row | SMILES | IC50 (A-375) [nM] | IC50 (cells [1]) [nM] | also measured
17 | NC(=O)c1c(Nc2ccc(I)cc2F)cc(F)cc1Oc1cccc(CNS(N)(=O)=O)c1 | 35 | 757 | 
18 | Cn1cnc2c(F)c(Nc3ccc(Br)cc3Cl)c(C(=O)NOCCO)cc21 [SELUMETINIB] |  | 3000 | half-life [11]: 4.1 h; IC50 (cells [2]): 69 nM; IC50 (MCF7): > 10000 nM; bioavailability [12]: 24%
19 | COc1ccc(Oc2cc(F)cc(Nc3ccc(I)cc3F)c2C(N)=O)cc1NS(N)(=O)=O | 731 |  | 
20 | Cc1ccc(Oc2cc(F)cc(Nc3ccc(I)cc3F)c2C(N)=O)cc1NS(N)(=O)=O | 180 |  | 
21 | NCCS(=O)(=O)Nc1cccc(Oc2cc(F)cc(Nc3ccc(I)cc3F)c2C(N)=O)c1 | 88 | 1800 | IC50 (Carbonic anhydrase 2): > 10000 nM
22 | NC(=O)c1c(Nc2ccc(I)cc2F)cc(F)cc1Oc1cccc(NS(N)(=O)=O)c1 |  | 180 | T/C (A549 [3]): 0.15; Kp [4]: < 0.02; IC50 (Carbonic anhydrase 1): 4800 nM
23 | Cc1c(NS(N)(=O)=O)cccc1Oc1cc(F)cc(Nc2ccc(I)cc2F)c1C(N)=O | 2 | 9 | 
24 | NC(=O)c1c(Nc2ccc(I)cc2F)cc(F)cc1Oc1cccc(NS(N)(=O)=O)c1Cl | 6 | 87 | 
25 | CCOc1ccc(Oc2cc(F)cc(Nc3ccc(I)cc3F)c2C(N)=O)cc1NS(N)(=O)=O | 977 |  | 
26 | Cc1cccc(Oc2cc(F)cc(Nc3ccc(I)cc3F)c2C(N)=O)c1NS(N)(=O)=O | 218 |  | 
27 | COc1cc(NS(N)(=O)=O)cc(Oc2cc(F)cc(Nc3ccc(I)cc3F)c2C(N)=O)c1 | 922 |  | 
28 | NC(=O)c1c(Nc2ccc(I)cc2F)cc(F)cc1Oc1ccc(Cl)c(NS(N)(=O)=O)c1 | 483 |  | 
29 | NC(=O)c1c(Nc2ccc(I)cc2F)cc(F)cc1Oc1ccccc1NS(N)(=O)=O | 65 | 2400 | 
30 | CN(C)S(=O)(=O)Nc1cccc(Oc2cc(F)c(F)c(Nc3ccc(I)cc3F)c2C(N)=O)c1 | 6 | 42 | 
31 | NC(=O)c1c(Nc2ccc(I)cc2F)cc(F)cc1Oc1cccc(CS(N)(=O)=O)c1 |  | 3500 | 
